Measured values from patent US10160771B2, “Hepatitis C virus inhibitors and uses thereof in preparation of drugs” (priority 2014, dated 2018).

Tests used:
[1] = system: HCV genotype 1a (HCV-1a) replicon cells; experiment: HCV genotype 1a replicon luciferase assay (EC50); type: cell-based, hepatitis C virus genotype 1a (H77 clone); conditions: Hepatitis C virus, 72 h, 3 days, luciferase (Bright-Glo)
Summary of the method: (§1)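 Stable subgenomic replicon cells (1a: H77 with K1691R, K2040R, S2204I; 1b: Con1 with E1202G, T1280I, K1846T) carrying luciferase and neo were seeded at 8000 cells/well onto compounds (5-fold, 6-point, top 100, 10 or 1 nM; 0.5% DMSO) for 3 days at 37 °C. Bright-Glo luminescence gave EC50 by nonlinear fit.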

[2] = system: HCV genotype 1b (HCV-1b) replicon cells; experiment: HCV genotype 1b replicon luciferase assay (EC50); type: cell-based, hepatitis C virus genotype 1b (Con1 clone); conditions: Hepatitis C virus, 72 h, 3 days, luciferase (Bright-Glo)
Summary of the method: as §1

in vitro = type: cell-based; conditions: HCV 1a replicon cells, 3 days, Cell Titer-fluor
Protocol: The EC50 and CC50 values of anti-HCV compounds were determined by HCV genotype 1a (HCV-1a) and 1B (HCV-1b) stable transfer replication (replicon) cells. The source of genotype 1a replicon is H77 clones containing K1691R, K2040R and S2204I adaptive mutations. The source of genotype 1b replicon is Con1 clones containing E1202G, T1280I and K1846T adaptive mutations.
HCV Replicon Cell Lines: HCV-1a and HCV-1b Cells
The compound powder was dissolved in 100% DMSO. Then the compound was diluted 5 times with 6 points, and added into the cell plate with Echo liquid handler. Ensure the final concentration of DMSO was 0.5%. Each compound was tested in double holes. Maximum initial concentration was 100, 10 or 1 nM, 5 times dilution, 6 points.
b) Cell Culture (HCV-1a or HCV-1b Replicon Cell):
1) absorbing the culture supernatant of the cell culture and washing the cells with 10 mL PBS.
2) adding preheated pancreatin to the washed cell culture flasks, rotating culture bottle to make the bottom of the culture bottle uniformly covered by pancreatin, then placed into 37° C., 5% CO2 incubator to digest.
3) suspending cells in each T150 culture flask with 10-15 mL culture medium, absorbing 0.1 mL liquid and diluting 2 times by trypan blue solution as counted.
4) diluting cells to 8×10^4/mL with the culture medium, adding the diluted cells into the compound-containing 96-well plate (Greiner, Cat.#655090) (100 μL/well, 8000 cells/well) with automatic liquid separator (Thermo Scientific). Then place into a 37° C., 5% CO2 incubator for 3 days. Cell control well: no compound, only containing 0.5% DMSO.
5) adding chemiluminescent substrate Cell Titer-fluor to the cell well, after incubation for 30 minutes, detecting the signal by chemiluminescence detection system Envison (Ex at 405 nm and read at 515 nm). The effect of the compounds on the activity of HCV replicon cells was analyzed according to the luminescence data, which was used to calculate the CC50 values.
The EC50 or CC50 values were obtained by nonlinear fitting analysis on inhibition percentage (inh %) data with GraphPad Prism software.

[3] = Cell Titer-fluor cell activity assay in HCV-1b replicon cells (CC50); type: cell-based
Summary of the method: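 Con1 genotype 1b replicon cells (E1202G, T1280I, K1846T adaptive mutations), 8000 cells/well, exposed to 6-point 5-fold dilutions from 100, 10 or 1 nM top concentration in 0.5% DMSO, duplicate wells, 3 days at 37 °C. Viability read by Cell Titer-fluor (Ex 405/Em 515 nm) after 30 min; CC50 from nonlinear fit of inhibition %.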

Structure (SMILES) | EC50 [1] | EC50 [2] | CC50 (in vitro) | CC50 at 3 days [3]
COC(=O)NC(C(=O)N1CCC[C@H]1c1ncc(-c2ccc(-c3ccc(-c4[nH]c(C5CCCN5C(=O)[C@@H](NC(=O)OC)C(C)C)c5c4CCC5)cc3)cc2)[nH]1)C1CCOC(C)C1 (stereo partly shown) [AG_050] | 1 to 10 nM | 0.001 to 0.1 nM | > 100 nM | > 100 nM
COC(=O)N[C@H](C(=O)N1CCC[C@H]1c1ncc(-c2ccc(-c3ccc(-c4[nH]c([C@@H]5CCCN5C(=O)[C@@H](NC(=O)OC)[C@@H](C)OC)c5c4COC5)cc3)cc2)[nH]1)C(C)C [AG_079_A] | 0.001 to 0.1 nM | 0.001 to 0.1 nM |  | > 5 nM
COC(=O)N[C@H](C(=O)N1CCC[C@H]1c1ncc(-c2ccc(-c3ccc(-c4cnc(C5CC(F)(F)C[C@H]5C(=O)N(NC(=O)OC)C(C)C)[nH]4)cc3)cc2)[nH]1)C(C)C (stereo partly shown) [AA_138] | 10 to 100 nM | 1 to 10 nM |  | > 100 nM
COC(=O)N[C@H](C(=O)N1CCC[C@H]1c1ncc(-c2ccc(-c3ccc(-c4cnc([C@@H]5[C@H]6CC[C@H](C6)[C@H]5C(=O)NCc5cncnc5)[nH]4)cc3)cc2)[nH]1)C(C)C [AA_201_ENDOA2] | 0.101 to 1 nM | 0.001 to 0.1 nM |  | > 1 nM
COC(=O)N[C@H](C(=O)N1CCC[C@H]1c1ncc(-c2ccc(-c3ccc(-c4cnc(C5C6CCC(C6)[C@H]5C(=O)NC(C)c5cccnc5)[nH]4)cc3)cc2)[nH]1)[C@@H](C)OC (stereo partly shown) [AA_251_A] | 0.101 to 1 nM | 0.101 to 1 nM |  | > 1 nM
COC(=O)N[C@H](C(=O)N1CCC[C@H]1c1ncc(-c2ccc(-c3ccc(-c4cnc([C@H]5C6CCC(C6)[C@@H]5C(=O)NCc5ccc(F)nc5)[nH]4)cc3)cc2)[nH]1)C(C)C (stereo partly shown) [AA_214_A] | 1 to 10 nM | 0.001 to 0.1 nM |  | > 1 nM
COC(=O)N[C@H](C(=O)N1C[C@@H](OC)C[C@H]1c1ncc(-c2ccc(-c3ccc(-c4cnc([C@@H]5C6CCC(C6)[C@H]5C(=O)NCc5cccnc5)[nH]4)cc3)cc2)[nH]1)C(C)C (stereo partly shown) [AA_230_A] | 0.101 to 1 nM | 0.001 to 0.1 nM |  | > 1 nM
O=C(NCc1cccnc1)[C@H]1C2CCC(C2)C1c1ncc(-c2ccc(-c3ccc(-c4cnc([C@@H]5C6CCC(C6)[C@H]5C(=O)NCc5cccnc5)[nH]4)cc3)cc2)[nH]1 (stereo partly shown) [AA_180] | 10 to 100 nM | 1 to 10 nM |  | > 10 nM
COC[C@H](NC(=O)OC)C(=O)N1CCC[C@H]1c1ncc(-c2ccc(-c3ccc(-c4[nH]c([C@@H]5CCCN5C(=O)[C@@H](NC(=O)OC)C(C)OC)c5c4COC5)cc3)cc2)[nH]1 (stereo partly shown) [AG_113] | 0.101 to 1 nM | 0.001 to 0.1 nM |  | > 1 nM
COC(=O)N[C@H](C(=O)N1CCC[C@H]1c1[nH]c(-c2ccc(-c3ccc(-c4cnc([C@@H]5CCCN5C(=O)[C@@H](NC(=O)OC)C5CC5)[nH]4)cc3)cc2)c2c1CCC2)C(C)C [AG_086] | 10 to 100 nM | 0.001 to 0.1 nM |  | > 1 nM
COC(=O)N[C@H](C(=O)N1CCC[C@H]1c1ncc(-c2ccc(-c3ccc(-c4cnc([C@H]5C6CCC(C6)[C@@H]5C(=O)NCc5cccnc5)[nH]4)cc3)c(F)c2)[nH]1)C(C)C (stereo partly shown) [AA_197_A] | 1 to 10 nM | 0.001 to 0.1 nM |  | > 1 nM
COC(=O)N[C@H](C(=O)N1CCC[C@H]1c1ncc(-c2ccc(-c3ccc(-c4cnc([C@@H]5[C@H]6CC[C@H](C6)[C@H]5C(=O)N[C@@H](C)c5cccnc5)[nH]4)cc3)cc2)[nH]1)C(C)C [AA_204_ENDOA2_A] | 0.001 to 0.1 nM | 0.001 to 0.1 nM |  | > 1 nM
COC(=O)N[C@H](C(=O)N1CCC[C@H]1c1ncc(-c2ccc(-c3ccc(-c4cnc(C5C6CCC(C6)[C@@H]5C(=O)N[C@H](c5cccnc5)C(C)C)[nH]4)cc3)cc2)[nH]1)[C@@H](C)OC (stereo partly shown) [AA_267_A] | 0.101 to 1 nM | 0.001 to 0.1 nM |  | > 1 nM
COC(=O)N[C@H](C(=O)N1CCC[C@H]1c1ncc(-c2ccc(-c3ccc(-c4cnc(C5C6CCC(C6)[C@@H]5C(=O)NNc5nccnc5Cl)[nH]4)cc3)cc2)[nH]1)[C@@H](C)OC (stereo partly shown) [AA_250_A] | 10 to 100 nM | 0.101 to 1 nM |  | > 1 nM
COC(=O)N[C@H](C(=O)N1CCC[C@H]1c1ncc(-c2ccc(-c3ccc(-c4cnc(C5C6CCC(C6)[C@@H]5C(=O)N(NC(=O)OC)C(C)C)[nH]4)cc3)c(C)c2)[nH]1)C(C)C (stereo partly shown) [AA_167] | 1 to 10 nM | 0.001 to 0.1 nM |  | > 1 nM
COC(=O)N[C@H](C(=O)N1CCC[C@H]1c1ncc(-c2ccc(-c3ccc(-c4cnc([C@H]5C6CCC(C6)[C@@H]5C(=O)NCc5ccc(OC)nc5)[nH]4)cc3)cc2)[nH]1)C(C)C (stereo partly shown) [AA_200_A] | 1 to 10 nM | 0.001 to 0.1 nM |  | > 1 nM
COC(=O)N[C@H](C(=O)N1CCC[C@H]1c1ccc(-c2ccc(-c3ccc(-c4cnc([C@@H]5CCCN5C(=O)[C@@H](NC(=O)OC)[C@@H](C)OC)[nH]4)cc3)cc2)[nH]1)C(C)C [AG_061_A] | 0.101 to 1 nM | 0.001 to 0.1 nM |  | > 1 nM
COC(=O)N[C@H](C(=O)N1CCC[C@H]1c1ncc(-c2ccc(-c3ccc(-c4cnc([C@@H]5C6CCC(C6)[C@H]5C(=O)N(C)c5ccccn5)[nH]4)cc3)cc2)[nH]1)C(C)C (stereo partly shown) [AA_195_B] | 1 to 10 nM | 0.001 to 0.1 nM |  | > 1 nM
COC(=O)N[C@H](C(=O)N1CCC[C@H]1c1ncc(-c2ccc(-c3ccc(-c4cnc(C5C6CCC(C6)[C@@H]5C(=O)NCc5ccc(C(F)(F)F)nc5)[nH]4)cc3)cc2)[nH]1)[C@@H](C)OC (stereo partly shown) [AA_264_A] | 1 to 10 nM | 0.101 to 1 nM |  | > 1 nM
COC(=O)N[C@H](C(=O)N1CCC[C@H]1c1ncc(-c2ccc3c(c2)[C@@](C)(O)c2cc(-c4cnc(C5C6CCC(C6)[C@H]5C(=O)NCc5cccnc5)[nH]4)ccc2-3)[nH]1)C(C)C (stereo partly shown) [AA_241_A] | 10 to 100 nM | 0.101 to 1 nM |  | > 1 nM
COC(=O)N[C@H](C(=O)N1CCC[C@H]1c1ncc(-c2ccc(-c3ccc(-c4cnc(C5[C@H]6CC[C@H](C6)[C@H]5C(=O)NCc5cccnc5F)[nH]4)cc3)cc2)[nH]1)C(C)C (stereo partly shown) [AA_224_ENDOA2] | 0.101 to 1 nM | 0.001 to 0.1 nM |  | > 1 nM
COC(=O)N[C@H](C(=O)N1CCC[C@H]1c1ncc(-c2ccc(-c3ccc(-c4cnc([C@@H]5[C@H]6CC[C@H](C6)[C@H]5C(=O)N[C@@H](CO)c5cccnc5)[nH]4)cc3)cc2)[nH]1)C(C)C [AA_243_ENDOA2_A] | 1 to 10 nM | 0.001 to 0.1 nM |  | > 1 nM
COC(=O)N[C@H](C(=O)N1CCCC1c1ncc(-c2ccc3c(c2)oc2cc(-c4ccc([C@@H]5CCCN5C(=O)[C@@H](NC(=O)OC)[C@@H](C)OC)[nH]4)ccc23)[nH]1)[C@@H](C)OC (stereo partly shown) [AG_103] | 1 to 10 nM | 0.001 to 0.1 nM |  | > 1 nM
COC(=O)N[C@H](C(=O)N1CCCC1c1cc(Cl)c(-c2ccc(-c3ccc(-c4cnc([C@@H]5CCCN5C(=O)[C@@H](NC(=O)OC)C(C)C)[nH]4)cc3)cc2)[nH]1)C(C)C (stereo partly shown) [AG_087] | 0.101 to 1 nM | 0.001 to 0.1 nM |  | > 1 nM
COC(=O)N[C@H](C(=O)N1CCC[C@H]1c1ncc(-c2ccc3c(c2)C(F)(F)c2cc(-c4cnc(C5C6CCC(C6)[C@H]5C(=O)NCc5cccnc5)[nH]4)ccc2-3)[nH]1)C(C)C (stereo partly shown) [AA_238] | 1 to 10 nM | 0.001 to 0.1 nM |  | > 1 nM
COC(=O)N[C@H](C(=O)N1CCC[C@H]1c1ncc(-c2ccc(-c3ccc(-c4cnc(C5C6CCC(C6)[C@@H]5C(=O)NCc5cccnc5C5CC5)[nH]4)cc3)cc2)[nH]1)[C@@H](C)OC (stereo partly shown) [AA_256_A] | 10 to 100 nM | 0.001 to 0.1 nM |  | > 1 nM
COC(=O)N[C@H](C(=O)N1CC2(CC2)C[C@H]1c1ncc(-c2ccc(-c3ccc(-c4[nH]c([C@@H]5CCCN5C(=O)[C@@H](NC(=O)OC)[C@@H](C)OC)c5c4COC5)cc3)cc2)[nH]1)[C@@H](C)OC [AG_116] | 0.001 to 0.1 nM | 0.001 to 0.1 nM |  | > 1 nM
